These results are taken from US20240199605A1, “SMALL MOLECULAR INHIBITORS OF NF-kB INDUCING KINASE” (Janssen Pharmaceutica NV, priority 2019, published 2024).

Read-outs that look alike come from different tables or passages of the source. Where only a bound is given, the exact number is not on record here.

Experiment [1] concerns the target recombinant human NF-kappaB-inducing kinase (NIK/MAP3K14) (Homo sapiens (Human), UniProt Q99558). Nature of the experiment: Inhibition of auto-phosphorylation of recombinant human NIK/MAP3K14 (AlphaScreen). Format: biochemical. The following applies: NIK auto-phosphorylation, 5 μM ATP, 1 nM NIK, 2 h at 25° C.; average of values. Summed up:
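GST-tagged NIK (1 nM) auto-phosphorylated with 5 μM ATP for 2 h at 25° C. in 50 mM Tris pH 7.5, 5 mM MgCl2, 1 mM EGTA, 1 mM DTT, 0.1 mM Na3VO4, 0.01% Tween 20 (0.7% DMSO). Detected by AlphaScreen via anti-phospho-IKK Ser176/180 antibody; IC50 from sigmoidal fit of % inhibition versus log concentration.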

Experiment [2] concerns p-IKKα levels in L363 (NIK translocated multiple myeloma) cells. Put plainly: Effect of compounds on p-IKKα levels in L363 cells (AlphaLISA SureFire Ultra). The format is cell-based, human. Conditions: BAFF stimulated, MG132, 6 h, average of values, read-out: Assay 2 IC50. Summed up:
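Inhibition of p-IKKα (Ser176/180) read by AlphaLISA after 6 h, 37 °C compound exposure (11-point 1:3 series, 0.3% DMSO) of L363 cells pre-incubated overnight ± 250 ng/ml BAFF and plated ± BAFF ± 10 μM MG132. Normalised to BAFF/MG132/DMSO and unstimulated controls; IC50 by sigmoidal fitting, duplicates.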

recombinant human NF-kappaB-inducing kinase (NIK/MAP3K14), sequence (Q99558 whole entry): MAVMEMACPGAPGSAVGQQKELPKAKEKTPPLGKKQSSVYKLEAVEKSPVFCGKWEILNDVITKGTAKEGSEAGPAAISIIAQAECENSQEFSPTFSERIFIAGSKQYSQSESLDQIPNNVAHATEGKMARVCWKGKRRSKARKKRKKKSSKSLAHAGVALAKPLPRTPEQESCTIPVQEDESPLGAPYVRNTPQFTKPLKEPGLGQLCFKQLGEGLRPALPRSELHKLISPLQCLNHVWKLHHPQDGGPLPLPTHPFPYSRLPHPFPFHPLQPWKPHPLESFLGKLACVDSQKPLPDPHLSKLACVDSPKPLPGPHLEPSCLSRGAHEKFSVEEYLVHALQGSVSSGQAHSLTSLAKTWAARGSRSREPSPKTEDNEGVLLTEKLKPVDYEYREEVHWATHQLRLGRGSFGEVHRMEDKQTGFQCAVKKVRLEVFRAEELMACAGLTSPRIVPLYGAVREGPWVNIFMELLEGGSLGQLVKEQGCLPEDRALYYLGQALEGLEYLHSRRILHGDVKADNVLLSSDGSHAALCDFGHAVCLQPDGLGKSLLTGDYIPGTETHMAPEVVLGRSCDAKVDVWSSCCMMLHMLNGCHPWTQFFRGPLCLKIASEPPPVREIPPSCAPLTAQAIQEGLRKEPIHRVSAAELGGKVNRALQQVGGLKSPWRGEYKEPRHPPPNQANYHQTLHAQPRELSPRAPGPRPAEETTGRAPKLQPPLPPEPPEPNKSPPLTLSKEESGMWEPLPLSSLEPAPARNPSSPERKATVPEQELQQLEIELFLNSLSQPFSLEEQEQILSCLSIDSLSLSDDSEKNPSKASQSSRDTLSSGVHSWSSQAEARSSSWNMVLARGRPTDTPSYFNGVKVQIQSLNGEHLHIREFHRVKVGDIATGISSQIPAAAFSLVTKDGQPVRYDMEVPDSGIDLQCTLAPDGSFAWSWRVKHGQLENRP

`Cc1cc([C@](C)(O)C#Cc2cccc(-c3ncc4ccnc(N)c4n3)c2)no1` [Example 34, (R)-4-[3-(8-Aminopyrido[3,4-d]pyrimidin-2-yl)phenyl]-2-(5-methylisoxazol-3-yl)but-3-yn-2-ol]: the IC50 in experiment [1] is at most 0.5 nM; in experiment [2] (Homo sapiens, L-363, 6 h), 52 nM.

`COCc1nc(N)c2nc(-c3cccc(C#C[C@]4(O)CCN(C)C4=O)c3)ccc2n1` [Example 206, (R)-3-((3-(4-Amino-2-(methoxymethyl)pyrido[3,2-d]pyrimidin-6-yl)phenyl)ethynyl)-3-hydroxy-1-methylpyrrolidin-2-one]: the IC50 in experiment [1] was determined as 3.5 nM; in experiment [2] (Homo sapiens, L-363, 6 h), 160 nM.

Turning to `CN1CC[C@@](O)(C#Cc2cccc(-c3ccc4ncnc(N5CCC5)c4n3)c2)C1=O` [Example 26, (R)-3-((3-(4-(Azetidin-1-yl)pyrido[3,2-d]pyrimidin-6-yl)phenyl)ethynyl)-3-hydroxy-1-methylpyrrolidin-2-one], the IC50 in experiment [1] was 1.2 nM; in experiment [2] (Homo sapiens, L-363, 6 h), 58 nM.

With `CN1CC[C@@](O)(C#Cc2cccc(-c3ncc4c(Cl)cnc(N)c4n3)c2)C1=O` [Example 103, (R)-3-((3-(8-Amino-5-chloropyrido[3,4-d]pyrimidin-2-yl)phenyl)ethynyl)-3-hydroxy-1-methylpyrrolidin-2-one], the IC50 in experiment [1] is at most 0.5 nM; in experiment [2] (Homo sapiens, L-363, 6 h), 5.8 nM.

With `Cc1ccc(C#C[C@]2(O)CCN(CC(F)(F)F)C2=O)cc1-c1ccc2ccnc(N)c2c1` [Example 77, (R)-3-[2-[3-(1-Amino-7-isoquinolyl)-4-methyl-phenyl]ethynyl]-3-hydroxy-1-(2,2,2-trifluoroethyl)pyrrolidin-2-one], the 50% inhibitory concentration (IC50) is over 5000 nM in experiment [1] and over 5000 nM in experiment [2] (Homo sapiens, L-363, 6 h).

On to `Cc1ccc(C#C[C@]2(O)CCN(C)C2=O)cc1-c1ncc2ncnc(N)c2n1` [Example 188, (R)-3-((3-(8-Aminopyrimido[5,4-d]pyrimidin-2-yl)-4-methylphenyl)ethynyl)-3-hydroxy-1-methylpyrrolidin-2-one], for which the IC50 is 1 nM in experiment [1] and 23 nM in experiment [2] (Homo sapiens, L-363, 6 h).

Regarding `Cc1nc(N)c2nc(-c3cccc(C#C[C@@](C)(O)c4nc(C(F)(F)F)cs4)c3)ccc2n1` [Example 192, (R)-4-(3-(4-Amino-2-methylpyrido[3,2-d]pyrimidin-6-yl)phenyl)-2-(4-(trifluoromethyl)thiazol-2-yl)but-3-yn-2-ol], the IC50 was 1110 nM in experiment [1] and over 5000 nM in experiment [2] (Homo sapiens, L-363, 6 h).

As to `[2H]c1nc(N)c2nc(-c3cccc(C#C[C@]4(O)CCN(C)C4=O)c3)cc(CC)c2n1` [Example 308, (R)-3-((3-(4-Amino-8-ethylpyrido[3,2-d]pyrimidin-6-yl-2-d)phenyl)ethynyl)-3-hydroxy-1-methylpyrrolidin-2-one], the 50% inhibitory concentration (IC50) worked out at 6.8 nM in experiment [1] and 190 nM in experiment [2] (Homo sapiens, L-363, 6 h).

For the compound `CO[C@@]1(C#Cc2cccc(-c3ccc4ncnc(N)c4n3)c2)CCN(C)C1=O` [Example 207, (R)-3-((3-(4-Aminopyrido[3,2-d]pyrimidin-6-yl)phenyl)ethynyl)-3-methoxy-1-methylpyrrolidin-2-one], the IC50 was 180 nM in experiment [1] and over 5000 nM in experiment [2] (Homo sapiens, L-363, 6 h).

`C=CCN1CCC(O)(C#Cc2cccc(-c3ccc4nc(C)nc(N)c4n3)c2)C1=O` (racemic) [Example 195, racemic-1-Allyl-3-((3-(4-amino-2-methylpyrido[3,2-d]pyrimidin-6-yl)phenyl)ethynyl)-3-hydroxypyrrolidin-2-one]: the IC50 in experiment [1] worked out at 21 nM; in experiment [2] (Homo sapiens, L-363, 6 h) it was 1130 nM.

In the case of `CN1CC[C@@](O)(C#Cc2cccc(-c3ccc4ccnc(N5CCC5)c4n3)c2)C1=O` [Example 233, (R)-3-((3-(8-(Azetidin-1-yl)-1,7-naphthyridin-2-yl)phenyl)ethynyl)-3-hydroxy-1-methylpyrrolidin-2-one], the IC50 is 520 nM in experiment [1] and over 5000 nM in experiment [2] (Homo sapiens, L-363, 6 h).

Turning to `[2H]c1nc(N)c2nc(-c3cc(C#C[C@]4(O)CCN(C)C4=O)ccc3C)ccc2n1` [Example 149, (R)-3-((3-(4-Aminopyrido[3,2-d]pyrimidin-6-yl-2-d)-4-methylphenyl)ethynyl)-3-hydroxy-1-methylpyrrolidin-2-one], the IC50 in experiment [1] is at most 0.5 nM; in experiment [2] (Homo sapiens, L-363, 6 h) it was 17 nM.

Turning to `CN1CC[C@@](O)(C#Cc2cccc(-n3cc4c(N)ncnc4n3)c2)C1=O` [Example 179, (R)-3-((3-(4-Amino-2H-pyrazolo[3,4-d]pyrimidin-2-yl)phenyl)ethynyl)-3-hydroxy-1-methylpyrrolidin-2-one], the IC50 in experiment [1] is 1170 nM; in experiment [2] (Homo sapiens, L-363, 6 h) it was over 5000 nM.

Consider `CN1CC[C@@](O)(C#Cc2cccc(-c3ccc4nc(CO)nc(N)c4n3)c2)C1=O` [Example 173, (R)-3-((3-(4-Amino-2-(hydroxymethyl)pyrido[3,2-d]pyrimidin-6-yl)phenyl)ethynyl)-3-hydroxy-1-methylpyrrolidin-2-one], for which the IC50 in experiment [1] amounted to 12 nM; in experiment [2] (Homo sapiens, L-363, 6 h) it was 180 nM.

Consider `Cc1nc(N)c2nc(-c3cccc(C#C[C@@]4(O)C(=O)N(C)C[C@@H]4C)c3)ccc2n1` (stereo in doubt) [Example 291, (3R,4S*)-3-((3-(4-Amino-2-methylpyrido[3,2-d]pyrimidin-6-yl)phenyl)ethynyl)-3-hydroxy-1,4-dimethylpyrrolidin-2-one], for which the half-inhibitory concentration (IC50) was 54 nM in experiment [1] and 1390 nM in experiment [2] (Homo sapiens, L-363, 6 h).

Consider `CN1CC[C@@](O)(C#Cc2cccc(-c3ncc4c(C#N)cnc(N)c4n3)c2)C1=O` [Example 100, (R)-8-Amino-2-(3-((3-hydroxy-1-methyl-2-oxopyrrolidin-3-yl)ethynyl)phenyl)pyrido[3,4-d]pyrimidine-5-carbonitrile], for which the 50% inhibitory concentration (IC50) in experiment [1] was at most 0.5 nM; in experiment [2] (Homo sapiens, L-363, 6 h), 6.1 nM.

On to `[2H]C([2H])([2H])N1CC[C@@](O)(C#Cc2ccc(C)c(-c3ccc4ccnc(N)c4c3)c2)C1=O` (single isomer, unassigned) [Example 71], for which the values for the half-inhibitory concentration (IC50) in experiment [1] and in experiment [2] were 4220 nM and over 5000 nM, respectively.

Turning to `C[C@@](O)(C#Cc1cccc(-c2ccc3ncnc(N)c3n2)c1)c1nccs1` [Example 93, (R)-4-(3-(4-Aminopyrido[3,2-d]pyrimidin-6-yl)phenyl)-2-(thiazol-2-yl)but-3-yn-2-ol], the half-inhibitory concentration (IC50) in experiment [1] is at most 0.5 nM; in experiment [2] (Homo sapiens, L-363, 6 h), 6.5 nM.

Consider `[2H]C([2H])([2H])N1CCC(O)(C#Cc2cccc(-c3ncc4c(C)cnc(N)c4n3)c2)C1=O` (stereo in doubt) [Example 87, (R)-3-[2-[3-(8-Amino-5-methyl-pyrido[3,4-d]pyrimidin-2-yl)phenyl]ethynyl]-3-hydroxy-1-(trideuteriomethyl)pyrrolidin-2-one], for which the half-maximal inhibitory concentration (IC50) was at most 0.5 nM in experiment [1] and 6 nM in experiment [2] (Homo sapiens, L-363, 6 h).

Turning to `Cc1nc(N)c2nc(-c3cccc(C#C[C@@](C)(O)c4cnccn4)c3)ccc2n1` [Example 200, (R)-4-[3-(4-Amino-2-methyl-pyrido[3,2-d]pyrimidin-6-yl)phenyl]-2-pyrazin-2-yl-but-3-yn-2-ol], the half-maximal inhibitory concentration (IC50) stood at 29 nM in experiment [1] and 3190 nM in experiment [2] (Homo sapiens, L-363, 6 h).

Take `CN1CC[C@@](O)(C#Cc2cccc(-c3cc(F)c4ncnc(N)c4c3)c2)C1=O` [Example 113, (R)-3-[2-[3-(4-Amino-8-fluoro-quinazolin-6-yl)phenyl]ethynyl]-3-hydroxy-1-methyl-pyrrolidin-2-one]: the half-inhibitory concentration (IC50) was at most 0.5 nM in experiment [1] and 92 nM in experiment [2] (Homo sapiens, L-363, 6 h).

Consider `Nc1nccc2ccc(-c3cccc(C#CC4(O)CCn5ccnc54)c3)nc12` (stereo in doubt) [Example 91, (R)-7-[2-[3-(8-Amino-1,7-naphthyridin-2-yl)phenyl]ethynyl]-5,6-dihydropyrrolo[1,2-a]imidazol-7-ol], for which the IC50 in experiment [1] was at most 0.5 nM; in experiment [2] (Homo sapiens, L-363, 6 h) it was 17 nM.

With `CN1CC[C@@](O)(C#Cc2cccc(-c3ncc4c(I)cnc(N)c4n3)c2)C1=O` [Example 102, (R)-3-((3-(8-Amino-5-iodopyrido[3,4-d]pyrimidin-2-yl)phenyl)ethynyl)-3-hydroxy-1-methylpyrrolidin-2-one], the IC50 is at most 0.5 nM in experiment [1] and 11 nM in experiment [2] (Homo sapiens, L-363, 6 h).

As to `CN1CC[C@@](O)(C#Cc2cccc(-c3cc(C#N)c4ncnc(N)c4c3)c2)C1=O` [Example 126, (R)-4-Amino-6-(3-((3-hydroxy-1-methyl-2-oxopyrrolidin-3-yl)ethynyl)phenyl)quinazoline-8-carbonitrile], the IC50 in experiment [1] is 0.9 nM; in experiment [2] (Homo sapiens, L-363, 6 h), 820 nM.

`CN1CC[C@@](O)(C#Cc2cccc(-c3ccc4ncnc(C(F)(F)F)c4n3)c2)C1=O` [Example 278, (R)-3-Hydroxy-1-methyl-3-((3-(4-(trifluoromethyl)pyrido[3,2-d]pyrimidin-6-yl)phenyl)ethynyl)pyrrolidin-2-one]: the concentration for half-maximal inhibition (IC50) in experiment [1] was 170 nM; in experiment [2] (Homo sapiens, L-363, 6 h), over 5000 nM.

For the compound `CC1(C)CC[C@@](O)(C#Cc2cccc(-c3ccc4ncnc(N)c4n3)c2)C1=O` [Example 131, (R)-2-[2-[3-(4-Aminopyrido[3,2-d]pyrimidin-6-yl)phenyl]ethynyl]-2-hydroxy-5,5-dimethyl-cyclopentanone], the IC50 in experiment [1] was at most 0.5 nM; in experiment [2] (Homo sapiens, L-363, 6 h), 47 nM.

With `Cc1cnc(N)c2nc(-c3cccc(C#C[C@]4(O)CCN(C)C4=O)c3)ncc12` [Example 39, (R)-3-((3-(8-Amino-5-methylpyrido[3,4-d]pyrimidin-2-yl)phenyl)ethynyl)-3-hydroxy-1-methylpyrrolidin-2-one], the concentration for half-maximal inhibition (IC50) in experiment [1] is at most 0.5 nM; in experiment [2] (Homo sapiens, L-363, 6 h), 9 nM.
